From US9290476B2, “Methylene linked quinolinyl modulators of RORγt” (Janssen Pharmaceutica NV, priority 2012, dated 2016)
Counter-ions that a name gives are not always drawn.

Assays:
human RORγt LBD = human RORγt LBD (Homo sapiens (Human), UniProt P51449); test: RORγt reporter assay (GAL4-RORγt LBD luciferase in HEK293T cells); assay type: cell-based; settings: for IC50: HEK293T cells, 24 hours compound treatment; for inhibition at 6 µM: HEK-293T, read-out: RORγt reporter Assay, % inhibition @ 6 μM, HEK293T cells, 6 μM
Chain of human RORγt LBD (P51449 258-518): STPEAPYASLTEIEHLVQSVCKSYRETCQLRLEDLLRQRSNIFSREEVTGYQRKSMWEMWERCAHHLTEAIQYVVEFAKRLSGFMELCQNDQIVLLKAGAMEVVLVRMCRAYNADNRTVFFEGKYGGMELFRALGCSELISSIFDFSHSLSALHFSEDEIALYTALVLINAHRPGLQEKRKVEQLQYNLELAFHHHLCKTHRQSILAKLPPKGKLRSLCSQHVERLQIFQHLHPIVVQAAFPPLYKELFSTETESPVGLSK
Text: A reporter assay was used to test functional activity of RORγt modulatory compounds on transcriptional activation driven by the RORγt LBD. Cells used in the assay were co-transfected with two constructs. The first construct, pBIND-RORγt LBD, contained the wild type human RORγt LBD fused to the DNA binding domain of the GAL4 protein. The second construct, pGL4.31 (Promega Cat no. C935A), contained multiple GAL4 responsive DNA elements upstream of firefly luciferase. […] The mutant construct was called pBIND-RORγt-AF2.
The pBIND vector contains the GAL4 DNA Binding Domain (GAL4 DBD) and the renilla luciferase gene under control of the SV40 promoter. Renilla luciferase expression serves as a control for transfection efficiency and cell viability.
The reporter assay was performed by transiently transfecting HEK293T cells with 5 ng of pBIND-RORγt LBD or pBIND-RORγt LBD-AF2 and 5 μg pGL4.31 (Promega Cat no. C935A) using Fugene 6 ([…] Cat no. E2691) at a 1:6 ratio of DNA: Fugene 6 in a T-75 flask in which cells were at least 80% confluent. Twenty four hours after bulk transfection, cells were plated into 96-well plates at 50,000 cells/well in phenol-red free DMEM containing 5% Lipid Reduced FCS and Pen/Strep. Six hours after plating, cells were treated with compounds for 24 hours. Media was removed and cells were lysed with 50 μL 1× Glo Lysis Buffer (Promega). Dual Glo Luciferase Reagent (50 μL/well) was then added and firefly luciferase luminescence was read on an Envision after a ten minute incubation. Finally, Stop and Glo reagent (50 μL/well) was added and renilla luciferase luminescence was read on an Envision after a ten minute incubation. To calculate the effect of compounds on RORγt activity, the ratio of firefly to renilla luciferase was determined and plotted against compound concentration. Agonist compounds increase RORγt-driven luciferase expression, and antagonist or inverse agonist compounds decrease luciferase expression.

[1] = biological target: human RORγt ligand binding domain (RORγt LBD) (Homo sapiens (Human), UniProt P51449); test: RORγt ThermoFluor assay (thermal shift binding affinity); settings: estimated from thermal shift
Chain of human RORγt ligand binding domain (RORγt LBD) (P51449 other isoform, or with tags, fused parts or gaps): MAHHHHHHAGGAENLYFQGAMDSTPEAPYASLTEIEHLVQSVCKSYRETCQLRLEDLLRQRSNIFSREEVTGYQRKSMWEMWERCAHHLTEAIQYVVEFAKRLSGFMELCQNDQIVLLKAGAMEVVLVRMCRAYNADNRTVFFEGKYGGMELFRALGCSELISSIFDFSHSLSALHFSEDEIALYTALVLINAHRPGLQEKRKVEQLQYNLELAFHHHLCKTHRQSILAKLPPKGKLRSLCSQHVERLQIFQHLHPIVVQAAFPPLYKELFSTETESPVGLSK
Procedure: This approach is applicable to a wide variety of systems, and rigorous in theoretical interpretation through quantitation of equilibrium binding constants (KD).
The shift in the melting point described as a ΔTm is proportional to the concentration and affinity of the ligand.
RORγt ThermoFluor® Assay Construct
Protein and compound solutions are dispensed into black 384-well polypropylene PCR microplates (Abgene) and overlayed with silicone oil (1 μL, Fluka, type DC 200) to prevent evaporation.
Bar-coded assay plates are robotically loaded onto a thermostatically controlled PCR-type thermal block and then heated at a typical ramp-rate of 1° C./min for all experiments. Fluorescence was measured by continuous illumination with UV light (Hamamatsu LC6) supplied via fiber optic and filtered through a band-pass filter (380-400 nm; >6 OD cutoff). Fluorescence emission of the entire 384-well plate was detected by measuring light intensity using a CCD camera (Sensys, Roper Scientific) filtered to detect 500±25 nm, resulting in simultaneous and independent readings of all 384 wells. Images were collected at each temperature, and the sum of the pixel intensity in a given area of the assay plate was recorded versus temperature. Reference wells contained RORγt without compounds, and the assay conditions were as follows: • 0.065 mg/mL RORγt • 60 μM 1,8-ANS • 100 mM Hepes, pH 7.0 • 10 mM NaCl • 2.5 mM GSH • 0.002% Tween-20
Project compounds were arranged in a pre-dosed mother plate (Greiner Bio-one) wherein compounds are serially diluted in 100% DMSO by 1:2 from a high concentration of 10 mM over 12 columns within a series (column 12 is a reference well containing DMSO, no compound). The compounds were robotically dispensed directly into assay plates (1×=46 nL) using a Hummingbird capillary liquid handling instrument (Digilab). Following compound dispense, protein and dye in buffer was added to achieve the final assay volume of 3 μL, followed by 1 μL of silicone oil.

SMILES	IC50 (human RORγt LBD) [µM]	inhibition at 6 µM (human RORγt LBD) [%]	Kd [1] [µM]
OC(c1cccnc1)(c1cccc(Cl)c1)c1ccc2nc(Cl)c(Cc3cccc(Cl)c3)c(Cl)c2c1 (stereo not drawn) [Example 4, (3-Chlorophenyl)-(2,4-dichloro-3-(3-chlorobenzyl)quinolin-6-yl)-(pyridin-3-yl)methanol.TFA]	~6	46	0.0077
COc1ccc(Cc2c(Cl)nc3ccc(C(O)(c4cccnc4)c4cccc(Cl)c4)cc3c2Cl)cc1 (stereo not drawn) [Example 6, (3-Chlorophenyl)-(2,4-dichloro-3-(4-methoxybenzyl)quinolin-6-yl)-(pyridin-3-yl)methanol.TFA]	~2	96	0.015
COc1nc2ccc(C(O)(c3cccnc3)c3cccc(Cl)c3)cc2c(Cl)c1Cc1ccc(F)cc1 (stereo not drawn) [Example 7, (4-Chloro-3-(4-fluorobenzyl)-2-methoxyquinolin-6-yl)(3-chlorophenyl)(pyridin-3-yl)methanol]	> 6	32	0.04
OC(c1cccnc1)(c1ccc2nc(Cl)c(Cc3cccc(Cl)c3)cc2c1)c1cncs1 (stereo not drawn) [Example 10]	2.3	77	0.099
CCOc1nc2ccc(C(O)(c3ccc(Cl)cc3)c3cncn3C)cc2c(Cl)c1Cc1ccccc1 (stereo not drawn) [Example 14, (3-Benzyl-4-chloro-2-ethoxyquinolin-6-yl)(4-chlorophenyl)(1-methyl-1H-imidazol-5-yl)methanol.TFA]	0.56	74	0.091
COc1ccc(C(O)(c2ccc3nc(Cl)c(Cc4ccccc4)c(Cl)c3c2)c2cncs2)cn1 (stereo not drawn) [Example 18, (3-Benzyl-2,4-dichloroquinolin-6-yl)(6-methoxypyridin-3-yl)(thiazol-5-yl)methanol]	> 6	41	0.0045
CCOc1nc2ccc(C(O)(c3ccc(OC)nc3)c3cncs3)cc2c(Cl)c1Cc1ccccc1 (stereo not drawn) [Example 19, (3-Benzyl-4-chloro-2-ethoxyquinolin-6-yl)(6-methoxypyridin-3-yl)(thiazol-5-yl)methanol]	6.6	57	0.0027
CCOc1nc2ccc(C(O)(c3cncs3)c3cncn3C)cc2cc1Cc1ccc(OC)cc1 (stereo not drawn) [Example 24, (2-Ethoxy-3-(4-methoxybenzyl)quinolin-6-yl)(1-methyl-1H-imidazol-5-yl)(thiazol-5-yl)methanol.TFA]	> 6	35	0.75
COc1nc2ccc(C(O)(c3ccc(N(C)C)cc3)c3cccnc3)cc2c(Cl)c1Cc1ccc(-n2cccn2)cc1 (stereo not drawn) [Example 42, (3-(4-(1H-Pyrazol-1-yl)benzyl)-4-chloro-2-methoxyquinolin-6-yl)(4-(dimethylamino)phenyl)(pyridin-3-yl)methanol]	0.18	96	0.36
OC(c1ccc(F)cc1)(c1cccnc1)c1ccc2nc(Cl)c(Cc3ccc(-n4cccn4)cc3)c(Cl)c2c1 (stereo not drawn) [Example 46, (3-(4-(1H-Pyrazol-1-yl)benzyl)-2,4-dichloroquinolin-6-yl)(4-fluorophenyl)(pyridin-3-yl)methanol]	0.052	89	0.022
Cn1cc(C(O)(c2ccc(Cl)cc2)c2ccc3nc(Cl)c(Cc4ccccc4)c(Cl)c3c2)cn1 (stereo not drawn) [Example 49, (3-Benzyl-2,4-dichloroquinolin-6-yl)(4-chlorophenyl)(1-methyl-1H-pyrazol-4-yl)methanol.TFA]	1.8	77	0.33
COc1nc2c(C)cc(C(O)(c3cncn3C)c3cncn3C)cc2c(Cl)c1Cc1ccc(-n2cccn2)cc1 [Example 56, (3-(4-(1H-Pyrazol-1-yl)benzyl)-4-chloro-2-methoxy-8-methylquinolin-6-yl)bis(1-methyl-1H-imidazol-5-yl)methanol]	0.012	102	0.00029
COc1nc2c(C)cc(C(O)(c3cncn3C)c3cncn3C)cc2c(Cl)c1Cc1ccc(S(C)(=O)=O)cc1 [Example 57, (4-Chloro-2-methoxy-8-methyl-3-(4-(methylsulfonyl)benzyl)quinolin-6-yl)bis(1-methyl-1H-imidazol-5-yl)methanol.Succinate]	0.057	100	0.0084

Second part, the molecule after the results:

IC50 (human RORγt LBD) [µM]	inhibition at 6 µM (human RORγt LBD) [%]	Kd [1] [µM]	SMILES
0.14	96	0.029	Cc1ccc(C(O)(c2ccc3nc(C#N)c(Cc4ccc(C(F)(F)F)cc4)c(C#N)c3c2)c2cnnn2C)c(C)n1 (single isomer, unassigned) [Example 88B, 6-((2,6-Dimethylpyridin-3-yl)(hydroxy)(1-methyl-1H-1,2,3-triazol-5-yl)methyl)-3-(4-(trifluoromethyl)benzyl)quinoline-2,4-dicarbonitrile]
~7	77	0.016	COc1ccc(Cc2c(Cl)nc3ccc(C(O)(c4ccc(Cl)cc4)c4cncn4C)cc3c2Cl)cc1 (stereo not drawn) [Example 12, (4-Chlorophenyl)(2,4-dichloro-3-(4-methoxybenzyl)quinolin-6-yl)(1-methyl-1H-imidazol-5-yl)methanol.TFA]
~1	70	0.031	COc1ccc(Cc2c(OC)nc3ccc(C(O)(c4ccc(Cl)cc4)c4cncn4C)cc3c2Cl)cc1 (stereo not drawn) [Example 13, (4-Chloro-2-methoxy-3-(4-methoxybenzyl)quinolin-6-yl)(4-chlorophenyl)(1-methyl-1H-imidazol-5-yl)methanol.TFA]
0.48	85	0.22	COc1nc2ccc(C(O)(c3ccc(N(C)C)cc3)c3cncn3C)cc2c(Cl)c1Cc1ccc(-n2cccn2)cc1 (stereo not drawn) [Example 26, (3-(4-(1H-Pyrazol-1-yl)benzyl)-4-chloro-2-methoxyquinolin-6-yl)(4-(dimethylamino)phenyl)(1-methyl-1H-imidazol-5-yl)methanol.TFA]
0.091	96	0.0048	COc1nc2c(C)cc(C(O)(c3ccc(C(F)(F)F)nc3)c3cncn3C)cc2c(Cl)c1Cc1ccc(-n2cccn2)cc1 (stereo not drawn) [Example 29A, (3-(4-(1H-Pyrazol-1-yl)benzyl)-4-chloro-2-methoxy-8-methylquinolin-6-yl)(1-methyl-1H-imidazol-5-yl)(6-(trifluoromethyl)pyridin-3-yl)methanol]
> 6	71	0.32	Cc1nc2ccc(C(O)(c3ccc(Cl)cc3)c3cncn3C)cc2c(C)c1Cc1ccccc1 (stereo not drawn) [Example 50, (3-Benzyl-2,4-dimethylquinolin-6-yl)(4-chlorophenyl)(1-methyl-1H-imidazol-5-yl)methanol.TFA]
1.9	98	1.1	CNC(=O)c1nc2ccc(C(O)(c3ccc(F)cc3)c3cncn3C)cc2c(C(F)(F)F)c1Cc1ccccc1 (stereo not drawn) [Example 51, 3-Benzyl-6-((4-fluorophenyl)(hydroxy)(1-methyl-1H-imidazol-5-yl)methyl)-N-methyl-4-(trifluoromethyl)quinoline-2-carboxamide]
1.7	94	7.6	Cn1cncc1C(O)(c1ccc(Cl)cc1)c1ccc2nc(O)c(Cc3ccc(-n4cccn4)cc3)c(Cl)c2c1 (stereo not drawn) [Example 55A, 3-(4-(1H-Pyrazol-1-yl)benzyl)-4-chloro-6-((4-chlorophenyl)(hydroxy)(1-methyl-1H-imidazol-5-yl)methyl)quinolin-2-ol]
